Holding throughout (test): AMPD Enzymatic Activity Assay
Common to all, as to details: pH 7.4

The target of experiment [1] is T1, AMP deaminase 1 (Mus musculus, UniProt Q3V1D3).
T1 sequence (Q3V1D3 whole entry): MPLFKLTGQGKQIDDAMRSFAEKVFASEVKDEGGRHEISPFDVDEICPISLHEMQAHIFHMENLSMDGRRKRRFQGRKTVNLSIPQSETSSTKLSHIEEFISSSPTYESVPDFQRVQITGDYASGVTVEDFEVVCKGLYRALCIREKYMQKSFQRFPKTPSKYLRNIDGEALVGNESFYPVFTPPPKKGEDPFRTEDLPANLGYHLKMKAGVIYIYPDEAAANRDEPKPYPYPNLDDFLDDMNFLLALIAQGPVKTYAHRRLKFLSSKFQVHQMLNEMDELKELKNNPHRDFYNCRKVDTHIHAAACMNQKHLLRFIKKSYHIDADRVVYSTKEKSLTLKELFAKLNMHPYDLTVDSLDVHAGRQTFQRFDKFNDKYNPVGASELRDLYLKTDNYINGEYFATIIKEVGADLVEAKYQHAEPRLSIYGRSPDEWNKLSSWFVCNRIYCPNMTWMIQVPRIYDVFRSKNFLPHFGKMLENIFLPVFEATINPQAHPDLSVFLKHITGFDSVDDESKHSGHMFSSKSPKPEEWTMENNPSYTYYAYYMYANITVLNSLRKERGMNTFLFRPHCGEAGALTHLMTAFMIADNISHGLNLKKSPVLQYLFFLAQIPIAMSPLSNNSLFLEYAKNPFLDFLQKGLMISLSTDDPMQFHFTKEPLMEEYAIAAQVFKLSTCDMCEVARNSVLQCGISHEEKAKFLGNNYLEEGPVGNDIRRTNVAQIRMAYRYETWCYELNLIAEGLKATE
The procedure: (§1) AMPD1 was added to buffer A (50 mM HEPES, 150 mM KCl, 5 mM MgCl2, and 0.5 mMglutathione [pH 7.4]) to a concentration of 10 nM. A substrate mix consistingof 2mMNADPH, 6mMa-ketoglutarate, 8mMAMP, and 15 U GDH was prepared in buffer A. Substrate mix ([…]) was added to the plate, followed by centrifugation and incubation for 1 hr. Detection was by absorbance at 340 nm following the conversion of NADPH to NADP+. Recombinant AMPD enzyme activity assays were performed in a 384-well format using the same conditions as described above, except the assay volume was […] and the AMP concentration for the AMPD2 assay was 8 mM. Different AMPD enzyme concentrations were used to have linear reactions: hAMPD1 (4 nM), hAMPD2 (38 nM), hAMPD3 (1 nM), rAMPD1 (116 nM), rAMPD2 (53 nM), rAMPD3 (31 nM), and mAMPD1 (816 nM).

For experiment [2], the target named is T2, AMP deaminase 1 (Rattus norvegicus, UniProt P10759).
T2 sequence (P10759 whole entry): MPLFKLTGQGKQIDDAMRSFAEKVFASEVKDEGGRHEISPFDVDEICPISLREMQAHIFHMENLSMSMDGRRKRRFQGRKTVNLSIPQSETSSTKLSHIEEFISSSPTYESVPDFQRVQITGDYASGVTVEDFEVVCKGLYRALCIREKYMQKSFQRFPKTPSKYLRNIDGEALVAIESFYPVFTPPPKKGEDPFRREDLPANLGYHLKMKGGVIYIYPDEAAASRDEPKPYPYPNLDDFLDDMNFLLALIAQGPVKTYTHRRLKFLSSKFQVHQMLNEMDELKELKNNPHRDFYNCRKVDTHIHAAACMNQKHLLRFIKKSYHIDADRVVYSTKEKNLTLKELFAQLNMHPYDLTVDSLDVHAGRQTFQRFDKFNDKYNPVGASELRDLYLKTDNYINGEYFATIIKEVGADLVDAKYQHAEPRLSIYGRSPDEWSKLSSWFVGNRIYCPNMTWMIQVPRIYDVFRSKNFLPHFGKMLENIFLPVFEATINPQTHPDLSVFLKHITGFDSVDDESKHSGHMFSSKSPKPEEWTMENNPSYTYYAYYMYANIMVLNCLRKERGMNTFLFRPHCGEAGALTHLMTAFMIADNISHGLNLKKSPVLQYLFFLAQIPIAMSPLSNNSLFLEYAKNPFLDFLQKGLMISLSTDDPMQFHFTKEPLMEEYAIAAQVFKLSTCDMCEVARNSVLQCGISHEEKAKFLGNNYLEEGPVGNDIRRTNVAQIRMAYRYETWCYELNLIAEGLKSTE
The procedure: as §1

For the next experiment, the target named is T3, AMP deaminase 2 (Rattus norvegicus, UniProt Q02356).
T3 sequence (Q02356 whole entry): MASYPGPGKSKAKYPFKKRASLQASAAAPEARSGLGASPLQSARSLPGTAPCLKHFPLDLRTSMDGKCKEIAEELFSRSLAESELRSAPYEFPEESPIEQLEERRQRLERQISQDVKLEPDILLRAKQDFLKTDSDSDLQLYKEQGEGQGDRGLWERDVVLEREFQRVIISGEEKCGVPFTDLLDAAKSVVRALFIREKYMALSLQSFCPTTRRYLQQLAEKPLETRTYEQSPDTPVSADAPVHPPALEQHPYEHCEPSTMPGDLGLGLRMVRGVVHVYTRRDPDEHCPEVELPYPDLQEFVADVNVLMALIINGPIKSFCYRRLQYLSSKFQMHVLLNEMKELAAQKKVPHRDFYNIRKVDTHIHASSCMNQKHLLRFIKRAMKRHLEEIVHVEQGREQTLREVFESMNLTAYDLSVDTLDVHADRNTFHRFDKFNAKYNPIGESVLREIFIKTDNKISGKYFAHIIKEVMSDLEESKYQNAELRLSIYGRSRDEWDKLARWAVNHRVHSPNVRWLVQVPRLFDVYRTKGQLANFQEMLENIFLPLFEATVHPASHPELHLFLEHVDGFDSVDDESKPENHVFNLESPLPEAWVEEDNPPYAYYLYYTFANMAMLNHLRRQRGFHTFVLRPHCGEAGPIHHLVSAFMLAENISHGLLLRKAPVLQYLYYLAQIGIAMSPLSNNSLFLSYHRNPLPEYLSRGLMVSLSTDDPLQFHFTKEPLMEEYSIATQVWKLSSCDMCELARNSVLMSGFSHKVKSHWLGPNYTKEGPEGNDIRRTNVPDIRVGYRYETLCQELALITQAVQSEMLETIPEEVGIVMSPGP
As for the experimental part: as §1

The values below come from BindingDB's records for doi:10.1016/j.chembiol.2014.09.011 (Astrazeneca R&D, 2014).

Broadly, the IC50 is the midpoint of a concentration-inhibition curve. Low values mean higher potency, high ones lower potency. Consider `C[C@@H](NCc1ccc(-c2ccc(C(=O)O)cn2)cc1)c1cccc2ccncc12` [6-[4-({[(1R)-1-(isoquinolin-8-yl)ethyl]amino}methyl)phenyl]pyridine-3-carboxylic acid (Compound 2)], for which the IC50 against AMP deaminase 1 [1] is 4.5 µM; at AMP deaminase 1 [2], 5.8 µM; at AMP deaminase 2 it was 32 µM.

With `C[C@H](NCc1ccc(-c2ccc(C(=O)O)cn2)cc1)c1cccc2ccncc12` [6-[4-({[(1S)-1-(isoquinolin-8-yl)ethyl]amino}methyl)phenyl]pyridine-3-carboxylic acid (Compound 3)], the IC50 worked out at 0.024 µM against AMP deaminase 1 [1], 0.027 µM against AMP deaminase 1 [2] and 0.57 µM against AMP deaminase 2.
